Results published in the NIST ThermoML archive (doi:10.1016/j.jct.2005.03.006).

Test: wn = mass fraction of the nth substance listed
Conditions: Liquid, Buoyancy - hydrostatic balance

CCc1ccccc1 [ethylbenzene] + CO
mass density [kg/m3]
Conditions | 100 kPa | 5000 kPa | 9900 kPa | 19700 kPa | 29700 kPa | 39300 kPa | 49100 kPa | 58900 kPa
292.05 K, w2 = 0.5 | 830.6 | 834.1 | 838.5 | 845.6 | 852.2 | 858.6 | 864.4 | 871.2
292.4 K, w2 = 0.75 | 813.3 | 817.6 | 822.1 | 827.7 | 836.5 | 843 | 848.8 | 855.8
292.65 K, w2 = 0.25 | 848 | 851.5 | 855.3 | 862.7 | 868.8 | 874.8 | 880.7 | 886.8
314.55 K, w2 = 0.5 | 810.8 | 815.2 | 819.6 | 827.8 | 835.2 | 842 | 848.6 | 854.4
314.65 K, w2 = 0.25 | 828.6 | 833.1 | 837.2 | 845.1 | 852 | 859 | 869.3 | 871.5
317.6 K, w2 = 0.75 | 795.3 | 799.8 | 804 | 810.8 | 820.2 | 827.4 | – | 840.4
335.35 K, w2 = 0.75 | – | 778.8 | 783 | 790.7 | 801.3 | 809.4 | 816.4 | 823.5
335.45 K, w2 = 0.25 | – | 815 | 819.5 | 828.3 | 836.8 | 844.1 | 850.4 | 856.4
337.65 K, w2 = 0.5 | – | 794.3 | 799.5 | 808.3 | 816.7 | 824.4 | 831.7 | 837.8
358.8 K, w2 = 0.75 | – | 754.4 | 759.7 | 768.5 | 780.5 | 789.6 | 797.4 | 805.5
359.95 K, w2 = 0.25 | – | 790.3 | 796.2 | 807.6 | 817.7 | 825.5 | 831.8 | 838
360.45 K, w2 = 0.5 | – | 771.3 | 778.5 | 788.1 | 797.9 | 806.5 | 814.1 | 820.5
384.05 K, w2 = 0.75 | – | 725.4 | 732.8 | 743 | 757.2 | 767.3 | 776.2 | 785.4
384.45 K, w2 = 0.5 | – | 744 | 754.8 | 766.4 | 777.5 | 786.6 | 797.7 | 801.6
385.75 K, w2 = 0.25 | – | 763.2 | 770.7 | 785.7 | 797.4 | 806 | 813 | 819.7
407.15 K, w2 = 0.25 | – | 739 | 748.1 | 765 | 778.9 | – | 796.4 | 804.1
408.15 K, w2 = 0.5 | – | 713.2 | 729.5 | 742.4 | 754.8 | 765.3 | 774.1 | 783
410.05 K, w2 = 0.75 | – | 691 | 701 | 714.3 | 731.6 | 742.6 | 753.1 | 763
433.5 K, w2 = 0.25 | – | 707.9 | 719.4 | 739 | 755.8 | 767 | 775 | 784.4
434.15 K, w2 = 0.5 | – | 677.4 | 695.9 | 712.8 | 728.6 | 741.1 | 751.2 | 761.4
434.35 K, w2 = 0.75 | – | 654.7 | 668.2 | 686 | 706.5 | 719 | 730.7 | 742.3
459.55 K, w2 = 0.75 | – | 608.3 | 628.7 | 651.4 | 677.4 | 692.5 | 706.4 | 719.5
460.25 K, w2 = 0.5 | – | 634.7 | 653.7 | 677.5 | 697.7 | 713.4 | 726.4 | 738.3
460.45 K, w2 = 0.25 | – | 668.7 | 683.4 | 708.2 | 727.1 | 740.5 | 751.2 | 761.5
489.65 K, w2 = 0.75 | – | 527.2 | 571 | 607 | 640.3 | 659.7 | 677.3 | 692.8
491.15 K, w2 = 0.5 | – | 554 | 594.2 | 633.2 | 656.5 | – | 693 | 708.6
497.95 K, w2 = 0.25 | – | 623 | 640.4 | 671 | 693.7 | 710.4 | 724.5 | 736
